In ChEMBL document CHEMBL5614422, “Design, synthesis and biological evaluation of N-salicyloyl tryptamine derivatives as multifunctional neuroprotectants for the treatment of ischemic stroke” (Eur J Med Chem, 2024):
Converted amounts (≈) assume the structure as drawn.

What was measured:
HT-22 [1] = test: Neuroprotective activity against OGD/R induced cell damage in mouse HT-22 cells assessed as cell viability at 10 uM measured after 24 hrs by MTT assay (reference value: 69.01 +/-2.90%); format: functional; settings: read-out: Activity
[2] = Cytotoxicity against mouse BV-2 cells assessed as cell viability incubated for 24 hrs by CCK-8 method; format: toxicity, cell-based
[3] = Cytotoxicity against mouse HT-22 cells assessed as cell viability incubated for 24 hrs by CCK-8 method; format: toxicity, cell-based
[4] = Antioxidant activity assessed as trolox equivalent of ORAC radical scavenging activity at 0.125 to 2 uM by AAPH based automatic microplate reader analysis; format: functional; settings: dose 0.125-2 µM
[5] = Permeability of the compound by PAMPA method; format: ADME; settings: read-out: permeability
HT-22 [6] = test: Anti-apoptotic activity in OGD/R mouse HT-22 cells assessed as early apoptotic cells at 10 uM by annexin V-FITC and PI staining based flow cytometry analysis (reference value: 9.51%); format: functional
HT-22 [7] = test: Anti-apoptotic activity in OGD/R mouse HT-22 cells assessed as necrotic cells at 10 uM by annexin V-FITC and PI staining based flow cytometry analysis (reference value: 0.14%); format: functional
HT-22 [8] = test: Anti-apoptotic activity in OGD/R mouse HT-22 cells assessed as late apoptotic cells at 10 uM by annexin V-FITC and PI staining based flow cytometry analysis (reference value: 7.26%); format: functional
HT-22 [9] = test: Anti-apoptotic activity in OGD/R mouse HT-22 cells assessed as viable cells at 10 uM by annexin V-FITC and PI staining based flow cytometry analysis (reference value: 83.09%); format: functional; settings: read-out: Activity
HT-22 [10] = test: Antioxidant activity against OGD/R induced damage in mouse HT-22 cells assessed as decrease in proportion of mitochondrial depolarized cells at 10 uM by JC-1 fluorescence based flow cytometry analysis (reference value: 91.7%); format: functional; set-up: scale not given: the % may be the effect or the level left
[11] = Aqueous solubility of the compound incubated for 72 hrs under shaking condition by HPLC analysis; format: physicochemical

SMILES	viability at 10 µM (HT-22 [1]) [%]	IC50 at 24 h [2] [µM]	IC50 at 24 h [3] [µM]	also measured
O=C(NCCc1c[nH]c2ccccc12)c1cc(Br)ccc1O	73.4	68.2	64.7	–
Cc1cccc(O)c1C(=O)NCCc1c[nH]c2ccccc12	88.4	43.6	60	–
COc1ccc2c(CCNC(=O)c3ccc(C)cc3O)c[nH]c2c1	61.5	> 100	102	–
Cc1ccc(C(=O)NCCc2c[nH]c3cccc(C)c23)c(O)c1	52.4	> 100	> 100	–
Cc1ccc(C(=O)NCCc2c[nH]c3ccc(C)cc23)c(O)c1	89.5	79.3	> 100	Activity [4]: 3.1
CN1CCN(C2=Nc3cc(Cl)ccc3Nc3ccccc32)CC1 [CLOZAPINE]	–	–	–	Papp [5]: 8.34 ×10⁻⁶ cm/s
CNc1ccc2[nH]cc(CCNC(=O)c3ccc(C)cc3O)c2c1	82.4	95.4	> 100	–
Cc1ccc(C(=O)NCCc2c[nH]c3cccc(Cl)c23)c(O)c1	71.1	89.1	> 100	–
COc1ccc2[nH]cc(CCNC(=O)c3ccc(C)cc3O)c2c1	74	> 100	> 100	–
O=C(NCCc1c[nH]c2ccccc12)c1cccc(Cl)c1O	87.9	50.4	52	–
O=C(NCCc1c[nH]c2ccccc12)c1ccc(Cl)cc1O	65.8	53.4	99.7	–
COc1cc(Cl)c2c(CCNC(=O)c3ccc(C)cc3O)c[nH]c2c1	60.1	> 100	> 100	–
Cc1ccc(O)c(C(=O)NCCc2c[nH]c3ccccc23)c1	76.5	50.2	51.1	–
COc1cc(C)cc2[nH]cc(CCNC(=O)c3ccc(C)cc3O)c12	85.4	52.9	73	–
O=C(NCCc1c[nH]c2ccccc12)c1c(O)cccc1F	87.7	> 100	> 100	–
O=C(NCCc1c[nH]c2ccccc12)c1cc(Cl)ccc1O	77.2	> 100	> 100	–
Cc1ccc(C(=O)NCCc2c[nH]c3c(N(C)C)cccc23)c(O)c1	87.1	> 100	59.8	–
Cc1ccc(C(=O)NCCc2c[nH]c3ccc(Br)cc23)c(O)c1	67.8	88.6	76.1	–
Cc1ccc(C(=O)NCCc2c[nH]c3cc(F)ccc23)c(O)c1	77.7	> 100	> 100	–
COc1ccc(O)c(C(=O)NCCc2c[nH]c3ccccc23)c1	88.5	51	> 100	Activity (HT-22 [6]): 5.54%; Activity (HT-22 [7]): 0.16%; Activity (HT-22 [8]): 5.18%; viability at 10 µM (HT-22 [9]): 89.1%
Cc1ccc(C(=O)NCCc2c[nH]c3c(Br)cccc23)c(O)c1	78.1	52.8	> 100	–
Cc1ccc(C(=O)NCCc2c[nH]c3cc(Br)ccc23)c(O)c1	66.2	46.6	70.8	–
O=C(NCCc1c[nH]c2ccccc12)c1ccccc1O	83	55.1	> 100	–
Cc1ccc(C(=O)NCCc2c[nH]c3cc(F)cc(F)c23)c(O)c1	89.2	32.7	61.9	–

SMILES	viability at 10 µM (HT-22 [1]) [%]	IC50 at 24 h [2] [µM]	IC50 at 24 h [3] [µM]	also measured
Cc1ccc(C(=O)NCCc2c[nH]c3c(F)cccc23)c(O)c1	92.5	43	86.2	–
Cc1ccc(C(=O)NCCc2c[nH]c3c(C)cccc23)c(O)c1	79.5	39.1	> 100	–
Cc1ccc(C(=O)NCCc2c[nH]c3ccccc23)c(O)c1	88.8	> 100	> 100	Activity [4]: 4.4; Activity (HT-22 [10]): 74%
Cc1ccc(C(=O)NCCc2c[nH]c3ccc(F)cc23)c(O)c1	83.9	> 100	> 100	Activity [4]: 3.1
COc1cc2[nH]cc(CCNC(=O)c3ccc(C)cc3O)c2cc1OC	75	26.5	54.6	–
Cc1ccc(C(=O)NCCc2c[nH]c3cc(Cl)ccc23)c(O)c1	64.6	52.5	63.1	–
O=C(NCCc1c[nH]c2ccccc12)c1cccc(Br)c1O	79.7	85.4	48.5	–
Cc1ccc(C(=O)NCCc2c[nH]c3cc4c(cc23)OCO4)c(O)c1	82.8	98.8	> 100	–
CNc1cccc2c(CCNC(=O)c3ccc(C)cc3O)c[nH]c12	80.8	28.9	> 100	–
Cc1ccc(C(=O)NCCc2c[nH]c3cccc(Br)c23)c(O)c1	73.1	> 100	> 100	–
Cc1ccc(C(=O)NCCc2c[nH]c3cccc(F)c23)c(O)c1	94.5	81.7	84.6	Activity [4]: 3.7
Cc1ccc(C(=O)NCCc2c[nH]c3cc(C)ccc23)c(O)c1	60.2	> 100	> 100	–
CC1=NN(c2ccccc2)C(=O)C1 [EDARAVONE]	80.9	–	–	Activity (HT-22 [6]): 1.78%; Activity (HT-22 [7]): 0.72%; Activity (HT-22 [8]): 5.39%; solubility thermodynamic at 72 h [11]: 1840 µg/mL (≈ 10.6 mM); viability at 10 µM (HT-22 [9]): 92.1%; Activity [4]: 2.8; Activity (HT-22 [10]): 67.9%
Cc1ccc(C(=O)NCCc2c[nH]c3ccc(Cl)cc23)c(O)c1	76	80.5	61.2	–
O=C(NCCc1c[nH]c2ccccc12)c1ccc(Br)cc1O	76.2	> 100	> 100	–
Cc1cccc(C(=O)NCCc2c[nH]c3ccccc23)c1O	87.2	36.1	51.5	–
COc1cccc2c(CCNC(=O)c3ccc(C)cc3O)c[nH]c12	91.5	90.9	73.2	Activity [4]: 2
COc1cccc(O)c1C(=O)NCCc1c[nH]c2ccccc12	59.2	21.7	8.06	–
Cc1ccc(C(=O)NCCc2c[nH]c3cc(N(C)C)ccc23)c(O)c1	88.9	52.4	46.4	–
Cc1ccc(C(=O)NCCc2c[nH]c3c(Cl)cccc23)c(O)c1	74.8	62.2	> 100	–
COc1ccc(C(=O)NCCc2c[nH]c3ccccc23)c(O)c1	86.9	68	52.6	–
COc1cccc2[nH]cc(CCNC(=O)c3ccc(C)cc3O)c12	74	96	78.4	–
COc1cccc(C(=O)NCCc2c[nH]c3ccccc23)c1O	87.8	> 100	> 100	–
